# Laboratory results published in US12685725B2, “Pridopidine for the treatment of mitochondrial-associated diseases and disorders and endoplasmic reticulum (ER) stress” (PRILENIA NEUROTHERAPEUTICS LTD., priority 2019, dated 2026).
# Read-outs that look alike come from different tables or passages of the source.
# Experiments:
# [1] = test system: WT and YAC128 cortical/striatal co-cultures; settings: 24 h
# Method: Oxygen consumption rate (OCR) in WT and hemizygous YAC128 cortical/striatal co-cultures and NSCs was measured using Seahorse XFe-24/96 flux analyzers (Seahorse Bioscience, Billerica, MA, USA) following the manufacturer's instructions. […] Pridopidine (0.1, 1 and/or 5 μM) was added, when indicated in the graphs, 24 h before the experiment. The sensor cartridge plate was incubated with immersed sensors in a non-CO2 incubator at 37° C. for ~16 h (overnight). […] The cell medium was aspirated gently to avoid disturbing cell monolayers. […] Accordingly, mitochondrial basal respiration, maximal respiration and ATP production was automatically calculated and recorded by the Seahorse software. Data was normalized for protein levels.
# [2] = test system: YAC128 cortical and striatal neurons; settings: 24 h
# Method: After basal reading for 10 minutes, neurons were stimulated with antimycin A (2 μM).
# [3] = test system: S1R-silenced HD lymphoblasts; settings: 5 μM, 24 h
# Method: S1R depletion was induced by treating with S1R-directed siRNA duplexes (Origene, cat no: SR426072). siRNA transfection was performed in antibiotic-free growth medium using the Polyplus JETPRIME transfection protocol as per manufacturer's instructions (Polyplus). Forty-eight hours after transfection the cells were subjected to pridopidine treatment and/or oxidative stress challenge. S1R knockdown efficiency was determined by Immunoblot analysis.
# TMRE assay: Primary neurons and lymphoblasts in suspension were cultured in 6-well plates.
# [4] = test system: mitochondrial complexes II, III and IV; settings: 30 mg/kg/day oral gavage 45 days
# Method: 1.5-month-old WT and hemizygous YAC128 mice (males and females in equal proportion) were divided into four groups. […] Mice were divided 4 animals per cage enriched in corn-husk nesting material and paper rolls, each cage representing one individual experiment, for a total of 9 animals per group. Pridopidine was dissolved in deionized sterile water. Animals were weighed every week and the volume of treatment adjusted accordingly. Mice were behaviorally tested in rotarod immediately before commencing treatment and on the day before finishing treatment. Tests were conducted blindly at a set time during the day. Mice were sacrificed 24 h after administration of the final pridopidine dose, and mitochondria isolated from the striatum.
# The final homogenate was then centrifuged at 1,100×g for 2 min, at 4° C. […] The mitochondrial fraction was pelleted by centrifugation at 18,500×g for 10 min at 4° C. The pellet was then resuspended in 1 mL of mitochondria washing buffer (MWB: in mM, 250 sucrose, 5 HEPES-KOH, 0.1 EGTA, pH 7.2) and centrifuged at 10,000×g for 5 min at 4° C. Mitochondrial pellet was again resuspended in a small volume of ice-cold MWB, to create a concentrated mitochondria solution, and kept on ice for further analysis for a maximum of 2 hours. Protein content of isolated mitochondria was quantified by Bio-Rad assay (Bio-Rad, catalog no. 5000006).
# After centrifugation, the volume was adjusted to 450 μL and the Seahorse plate was equilibrated in a humidified C02-free incubator at 37° C. for 10-12 min.
# [5] = test system: STHdh^Q7/7 cells expressing Htt96Q-mCherry or Htt20Q-mCherry
# Method: Transfections of HEK 293 cells were carried out according to the calcium phosphate method. STHdh^Q7/7 cells are a murine striatal cell line with a stable knock-in of the full-length wild type (WT) human Htt containing a polyglutamine stretch of 7 glutamines (Trettel et al. 2000). […] No cell line used is listed as a commonly misidentified cell line. Cell lines were not authenticated. To reduce any risk of cross-contamination they were grown for a limited number of passages. Transient transfections of NIH 3T3 and STHdh^Q7/7 cells were performed using an MP-100 Microporator (Digital Bio) or ViaFect™ Transfection Reagent (Cat.No. E4981) (Promega), according to the manufacturer's protocols.
# Briefly, cells grown for 24 h after transfection on coverslips in 24-well plates were fixed with 3% paraformaldehyde, followed by blocking with 50 mM glycine in PBS and normal goat IgG in PBS/2% BSA. The cells were incubated with primary antibodies for 1 h, washed and incubated for 30 min with secondary antibodies, followed by washes. Nuclei were stained with 4′,6-diamidino-2-phenylindole (Cat.No. F6057) (Sigma). Confocal microscopy was done on a Zeiss laser scanning confocal microscope (LSM 510; Carl Zeiss, Jena, Germany) as described previously. ImageJ was used to quantify fluorescence intensity in images of treated individual cells compared to untreated cells with and without Htt96Q-mCherry aggregates and to calculate Mander's coefficients for colocalization studies.
# [6] = test system: HD-iPSC-derived neural stem cells (HD-NSCs)
# Method: Neural induction occurred between day 0 and days 12-15. From day 0 to day 5, cells were maintained in iPSC medium without FGF2 and incubated with 5 μM dorsomorphin and 10 μM SB431542. Medium was changed every other day. […] Between days 12 and 15, fields full of rosettes became morphologically visible. To allow the cells to differentiate, cells were replated in Geltrex® coated 12-well plates. For detaching, 500 μl of 1×Accutase® (Thermo Fisher Sci., catalog no: A1110501) was added to the plate and incubated at 37° C. in 5% CO2, for 15-20 min. Accutase was diluted in DMEM/F12 medium pre-warmed to 37° C. Cells were collected and spun for 3 min at 200×g at room temperature, and resuspended in 200 μl of media into 12-well plates. […] Cells were incubated overnight at 37° C., 5% CO2. Cells were passaged every 2-3 days for no more than 10-12 passages.
# [7] = test system: S1R-dependence of eIF2α phosphorylation in HEK 293 cells; settings: 8 h
# Method: HEK 293 cells were transfected with plasmids carrying Cas9 and 3 different guide RNAs (gRNA) targeting human Sigma1-R and a control gRNA. Ten days after transfection and selection with puromycin, cell lysates of the pools of selected cells were tested for S1R knockout by immunoblotting. […] Subsequent cloning by dilution produced, after 4 weeks, several clones with complete knockout of Sigma1-R for each gRNA.
# Cells were lysed in PBS containing 1% Triton X-100, 0.5% sodium deoxycholate with protease inhibitors and centrifuged to pellet insoluble aggregates, debris and nuclei. Phosphatase inhibitor cocktail 2 and 3 and 10 mM 0-glycerol phosphate were added to the lysis buffer to inhibit phosphatases for detection of phosphorylated proteins. Supernatants were separated from pellets and incubated in loading buffer for 5 min at 100° C., pellets were incubated for 10 min at 100° C. After SDS-PAGE and transfer to nitrocellulose membrane, blocking was done in 5% low-fat milk and 0.1% Tween-20 in PBS for 1 h. Incubation with the primary antibody was overnight at 4° C. and after three washes in 0.1% Tween-20 in PBS, incubation with the appropriate secondary antibody was for 1 h at room temperature. After washing, enhanced chemiluminescence assay was performed and the membrane was exposed and quantified in a Bio-Rad ChemiDocXRS Imaging System (Bio-Rad, Hercules, CA).
structure (smiles),measurement,setting,value
"CCCN1CCC(c2cccc(S(C)(=O)=O)c2)CC1 [Pridopidine, 4-[3-(methylsulfonyl)phenyl]-1-propyl-piperidine]",maximal respiration,"[1]; HD Y128 corticostriatal neurons, 1 μM, p=0.0061",rescues maximal
same,maximal respiration,"[1]; HD Y128 corticostriatal neurons, 5 μM, p=0.002",rescues maximal
same,ATP production,"[1]; HD Y128 corticostriatal neurons, 5 μM, p=0.0358",rescues
same,basal respiration,"[1]; HD Y128 corticostriatal neurons, 1 and 5 μM",non-significant trend towards increasing basal respiration
same,maximal respiration,"[1]; WT cells, 1 and 5 μM",increases maximal respiration in both WT and Y128 cells
same,mitochondrial basal respiration,"[1]; WT neurons, 1 μM, p=0.0058",enhances mitochondrial basal respiration
same,mitochondrial basal respiration,"[1]; WT neurons, 5 μM, p=0.0016",enhances mitochondrial basal respiration
same,ATP production,"[1]; WT neurons, 5 μM, p=0.02",enhances
same,mito-H2O2 levels prompted by Ant A,"[2]; YAC128 cortical neurons, 1 μM, p<0.0001",reverts the increased levels of mito-H2O2 prompted by Ant A
same,mito-H2O2 levels prompted by Ant A,"[2]; YAC128 striatal neurons, 0.1 μM, p=0.0005",reverts the increased levels of mito-H2O2 prompted by Ant A
same,mito-H2O2 levels prompted by Ant A,"[2]; YAC128 striatal neurons, 1 μM, p<0.0001",reverts the increased levels of mito-H2O2 prompted by Ant A
same,mitochondrial membrane potential signal after H2O2 stimulation,[3]; S1R+/+ cells,increases TMRM signal after H2O2 stimulation
same,effect on mitochondrial membrane potential,"[3]; absence of the S1R (silenced ~83%), p<0.0001",abolished
same,activity of mitochondrial complex IV (OCR),[4]; YAC128 mice,shows a similar decreasing trend
same,activity of mitochondrial complex III,"[4]; YAC128 mice, p=0.0084",normalizes the activity of mitochondrial complexes H and III
same,activity of mitochondrial complex II,"[4]; YAC128 mice, p=0.0306",normalizes the activity of mitochondrial complexes H and III
same,mitochondrial complex activities,[4]; wild-type mice,does not affect mitochondrial complex activities
same,"H2a-GFP accumulation, of the untreated control",[5]; cells positive for mHtt (Htt96Q-mCherry) aggregates,40%
same,"ER stress (H2a-GFP relative intensity), dose dependence","[5]; cells with Htt96Q-mCherry aggregates, from 0.03 to 150 μM",significantly reduces ER stress in a dose-dependent manner
same,H2a-GFP levels,[5]; cells without aggregates or cells expressing Htt20Q-mCherry,does not alter H2a-GFP levels
same,percent of cells that show visible Htt96Q-mCherry aggregates,[5]; expression of Htt96Q-mCherry for 24 h,unchanged
same,ATP production,[6],shows a trend towards increasing ATP production
same,maximal respiration,[6],also increases
same,mitochondrial basal respiration,[6],also increases mitochondrial basal
same,eIF2α-P levels,[7]; S1R expressing control clone expressing Htt96Q,significantly reduces eIF2α-P levels
same,concentration of maximal effect on eIF2α phosphorylation,[7]; control clone expressing myc-Htt96Q,3 µM
